Source: the supplement of paper PMC10307832

Columns and labels:
Experiment in all cases: relative viability (nuclei count vs DMSO), 5 days (fraction); higher = more cells survive
A-427 = tested on: A-427
Procedure, shortened: (§1)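 Relative viability equals treated-well nuclei counts divided by vehicle-well nuclei counts. Counts came from 4× images of lung cancer cell lines grown in 1536-well plates for 5 days after pin-tool dosing on the day after seeding. Dosing used one drug alone or a fixed anchor-drug dose plus five library-drug doses (not always all listed) in √10 steps, and values are medians of duplicate plates.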

CAL-12T = tested on: CAL-12T
Procedure, shortened: as §1

HOP-62 = tested on: HOP-62
Procedure, shortened: as §1

LCLC-103H = tested on: LCLC-103H
Procedure, shortened: as §1

LXF-289 = tested on: LXF-289
Procedure, shortened: as §1

NCI-H1395 = tested on: NCI-H1395
Procedure, shortened: as §1

NCI-H1651 = tested on: NCI-H1651
Procedure, shortened: as §1

NCI-H1975 = tested on: NCI-H1975
Procedure, shortened: as §1

NCI-H2085 = tested on: NCI-H2085
Procedure, shortened: as §1

NCI-H2087 = tested on: NCI-H2087
Procedure, shortened: as §1

NCI-H2170 = tested on: NCI-H2170
Procedure, shortened: as §1

NCI-H2342 = tested on: NCI-H2342
Procedure, shortened: as §1

NCI-H3122 = tested on: NCI-H3122
Procedure, shortened: as §1

NCI-H596 = tested on: NCI-H596
Procedure, shortened: as §1

NCI-H647 = tested on: NCI-H647
Procedure, shortened: as §1

NCI-H650 = tested on: NCI-H650
Procedure, shortened: as §1

RERF-LC-KJ = tested on: RERF-LC-KJ
Procedure, shortened: as §1

`COCC1(CO)C(=O)C2CCN1CC2` (stereo unspecified) [PRIMA-1MET] + NC(=O)Nc1cc(-c2cccc(F)c2)sc1C(=O)N[C@H]1CCCNC1 [AZD7762] (partner 0.2 µM) gave a relative viability (A-427; first compound 0.2 µM) of 0.741, a relative viability (A-427; first compound 0.6325 µM) of 0.795 and a relative viability (A-427; first compound 2 µM) of 0.756. The relative viability (A-427; first compound 6.325 µM) was 0.711, the relative viability (A-427; first compound 20 µM) was 0.557 and the relative viability (CAL-12T; first compound 0.2 µM) was 0.603. For the same compound, the relative viability (CAL-12T; first compound 2 µM) was 0.6, the relative viability (CAL-12T; first compound 6.325 µM) was 0.777 and the relative viability (CAL-12T; first compound 20 µM) was 0.601. For the same compound, the relative viability (HOP-62; first compound 0.2 µM) was 0.653, the relative viability (HOP-62; first compound 0.6325 µM) was 0.387 and the relative viability (HOP-62; first compound 2 µM) was 0.482. The relative viability (HOP-62; first compound 6.325 µM) was 0.655, the relative viability (HOP-62; first compound 20 µM) was 0.273 and the relative viability (LCLC-103H; first compound 0.2 µM) was 0.889. The relative viability (LCLC-103H; first compound 0.6325 µM) was 0.732, the relative viability (LCLC-103H; first compound 2 µM) was 0.673 and the relative viability (LCLC-103H; first compound 6.325 µM) was 0.768. For the same compound, the relative viability (LCLC-103H; first compound 20 µM) was 0.756, the relative viability (LXF-289; first compound 0.2 µM) was 1.15 and the relative viability (LXF-289; first compound 0.6325 µM) was 1.07. It also gave a relative viability (LXF-289; first compound 2 µM) of 1.13, a relative viability (LXF-289; first compound 6.325 µM) of 1.12 and a relative viability (LXF-289; first compound 20 µM) of 1.01. The relative viability (NCI-H1395; first compound 0.2 µM) was 0.376, the relative viability (NCI-H1395; first compound 2 µM) was 0.385 and the relative viability (NCI-H1395; first compound 6.325 µM) was 0.38. For the same compound, the relative viability (NCI-H1395; first compound 20 µM) was 0.129, the relative viability (NCI-H1651; first compound 0.2 µM) was 0.442 and the relative viability (NCI-H1651; first compound 0.6325 µM) was 0.443. For the same compound, the relative viability (NCI-H1651; first compound 2 µM) was 0.478, the relative viability (NCI-H1651; first compound 6.325 µM) was 0.513 and the relative viability (NCI-H1651; first compound 20 µM) was 0.592. It also gave a relative viability (NCI-H1975; first compound 0.2 µM) of 0.807, a relative viability (NCI-H1975; first compound 0.6325 µM) of 0.648 and a relative viability (NCI-H1975; first compound 2 µM) of 0.651. For the same compound, the relative viability (NCI-H1975; first compound 6.325 µM) was 0.811, the relative viability (NCI-H1975; first compound 20 µM) was 0.181 and the relative viability (NCI-H2085; first compound 0.2 µM) was 1.09. The relative viability (NCI-H2085; first compound 0.6325 µM) was 1.1, the relative viability (NCI-H2085; first compound 2 µM) was 0.588 and the relative viability (NCI-H2085; first compound 6.325 µM) was 0.942. For the same compound, the relative viability (NCI-H2085; first compound 20 µM) was 0.176, the relative viability (NCI-H2087; first compound 0.6325 µM) was 1.35 and the relative viability (NCI-H2087; first compound 2 µM) was 1.29. The relative viability (NCI-H2087; first compound 6.325 µM) was 1.25, the relative viability (NCI-H2087; first compound 20 µM) was 0.938 and the relative viability (NCI-H2170; first compound 0.2 µM) was 1.06. It also gave a relative viability (NCI-H2170; first compound 0.6325 µM) of 0.604, a relative viability (NCI-H2170; first compound 2 µM) of 0.644 and a relative viability (NCI-H2170; first compound 6.325 µM) of 1. The relative viability (NCI-H2170; first compound 20 µM) was 0.836, the relative viability (NCI-H2342; first compound 0.2 µM) was 0.566 and the relative viability (NCI-H2342; first compound 0.6325 µM) was 0.371. It also gave a relative viability (NCI-H2342; first compound 6.325 µM) of 0.531, a relative viability (NCI-H2342; first compound 20 µM) of 0.41 and a relative viability (NCI-H3122; first compound 0.2 µM) of 0.854. For the same compound, the relative viability (NCI-H3122; first compound 0.6325 µM) was 0.911, the relative viability (NCI-H3122; first compound 2 µM) was 0.985 and the relative viability (NCI-H3122; first compound 6.325 µM) was 0.95. For the same compound, the relative viability (NCI-H3122; first compound 20 µM) was 0.879, the relative viability (NCI-H596; first compound 0.2 µM) was 1.24 and the relative viability (NCI-H596; first compound 0.6325 µM) was 1. For the same compound, the relative viability (NCI-H596; first compound 2 µM) was 0.884, the relative viability (NCI-H596; first compound 6.325 µM) was 1.22 and the relative viability (NCI-H596; first compound 20 µM) was 0.232. For the same compound, the relative viability (NCI-H647; first compound 0.2 µM) was 0.578, the relative viability (NCI-H647; first compound 0.6325 µM) was 0.434 and the relative viability (NCI-H647; first compound 2 µM) was 0.38. For the same compound, the relative viability (NCI-H647; first compound 6.325 µM) was 0.383, the relative viability (NCI-H647; first compound 20 µM) was 0.137 and the relative viability (NCI-H650; first compound 0.2 µM) was 0.961. For the same compound, the relative viability (NCI-H650; first compound 0.6325 µM) was 0.828, the relative viability (NCI-H650; first compound 2 µM) was 0.983 and the relative viability (NCI-H650; first compound 6.325 µM) was 0.995. The relative viability (NCI-H650; first compound 20 µM) was 0.148, the relative viability (RERF-LC-KJ; first compound 0.2 µM) was 1.11 and the relative viability (RERF-LC-KJ; first compound 0.6325 µM) was 0.875. For the same compound, the relative viability (RERF-LC-KJ; first compound 2 µM) was 0.928, the relative viability (RERF-LC-KJ; first compound 6.325 µM) was 1.04 and the relative viability (RERF-LC-KJ; first compound 20 µM) was 0.978.
